Results reported in patent publication US20210330611A1, “THERAPY FOR NEUROLOGICAL DISEASES/DISORDERS” (priority 2020, published 2021).
Where two headings read alike, the source gives them in different places.

Assays:
[1] = test system: fibrin-induced microglia activation; test: Image-based assay of fibrin-induced microglia activation (HTS and dose response); type: cell-based, rat; conditions: primary microglia HTS, fibrin stimulation; for inhibition at 10 µM: Rattus norvegicus, Microglia, read-out: Fibrin % inhibition
[2] = test system: LPS-induced microglia activation; test: Image-based assay of LPS-induced microglia activation (HTS and dose response); type: cell-based, rat; conditions: for inhibition at 10 µM: Rattus norvegicus, Microglia, read-out: LPS % inhibition
[3] = test system: fibrin- and LPS-induced microglia activation; test: cells; type: cell-based, rat
primary rat microglia [4] = test system: primary rat microglia
primary rat microglia [5] = test: Cell toxicity (dead cells, size <150 μm2) in coated fibrin (cFib) assay; conditions: primary microglia HTS;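 note: share of dead cells sized under 150 µm2 at 10 µM in fibrin-stimulated microglia HTS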
[6] = primary microglia HTS, LPS stimulation, compounds at 10 μM
[7] = quadrant by fibrin and LPS inhibition, HTS at 10 μM
[8] = fibrin assay, dead cells (size <150 μm2)
[9] = classification by fibrin and LPS inhibition, HTS at 10 μM
[10] = fibrin assay, dead cells (size <150 μm2), compounds at 10 μM
[11] = cell size >800 μm2 as marker of activation
[12] = classification by fibrin and LPS inhibition in HTS
[13] = fibrin stimulation, cell size <150 μm2 as marker of toxicity
[14] = primary microglia HTS, LPS stimulation, compounds at 10 μM, 10 µM

SMILES | Quadrant (FIG. 5b) [3, 7] | Fibrin % cell toxicity (primary rat microglia [5]; [8]) [%] | inhibition at 10 µM ([1]; compounds at 10 μM) [%] | inhibition at 10 µM [2, 6] [%] | Quadrant (FIG. 5b) [3, 9] | LPS % cell toxicity (primary rat microglia [4]; rat) [%] | Fibrin % cell toxicity (primary rat microglia [5]; [10]) [%] | also measured
Cl.NCC(O)c1ccc(O)cc1 (racemic) | Q4 | 1 | – | – | – | – | – | Fibrin % inhibition ([1]; compounds at 10 μM): −48%; LPS % inhibition [2, 6]: 16%; LPS % cell toxicity (primary rat microglia [4]): 0%
OC(CCCN1CCCCC1)(c1ccccc1)c1ccccc1 [Diphenidol] | – | – | -34 | -5 | Q4 | 0 | 1 | –
CCC(=O)O[C@](Cc1ccccc1)(c1ccccc1)[C@H](C)CN(C)C [Dextropropoxyphene] | – | – | -25 | 15 | Q4 | 0 | 1 | –
CC(=O)Nc1cc([As](=O)(O)O)ccc1O [Acetarsol] | Q4 | 0 | -12 | 13 | – | 0 | – | –
CCC1(C)CC(=O)NC1=O (stereo not shown) [Ethosuximide] | – | – | -9 | 19 | Q4 | 0 | 0 | –
CCOC(=O)[C@H](CCc1ccccc1)N[C@@H](C)C(=O)N1[C@H](C(=O)O)C[C@@H]2CCC[C@@H]21 [Ramipril] | – | – | – | – | – | 0 | – | inhibition at 10 µM [1, 11]: 8%; inhibition at 10 µM ([2]; 48 h): 16%; Quadrant (FIG. 5b) [3, 12]: Q4; Fibrin % cell toxicity (primary rat microglia [5]; [13]): 0%
CC(=O)NO [Acetohydroxamic Acid] | Q4 | 0 | -3 | 12 | – | 0 | – | –
NCC[C@H](O)C(=O)N[C@@H]1C[C@H](N)[C@@H](O[C@H]2O[C@H](CN)[C@@H](O)[C@H](O)[C@H]2O)[C@H](O)[C@H]1O[C@H]1O[C@H](CO)[C@@H](O)[C@H](N)[C@H]1O.O=S(=O)(O)O.O=S(=O)(O)O [Amikacin Sulfate] | Q4 | 1 | – | – | – | – | – | Fibrin % inhibition ([1]; compounds at 10 μM): 3%; LPS % inhibition [2, 6]: 1%; LPS % cell toxicity (primary rat microglia [4]): 0%
Cc1ccccc1N1CCN(CCc2nnc3n2CCCC3)CC1 [Dapiprazole] | – | – | -9 | 14 | Q4 | 0 | 1 | –
C=CC[N+]1([C@H]2C[C@H]3[C@@H]4CC[C@H]5C[C@H](O)[C@@H](N6CCOCC6)C[C@]5(C)[C@H]4CC[C@]3(C)[C@H]2OC(C)=O)CCCC1 [Rocuronium] | – | – | – | – | – | 0 | – | inhibition at 10 µM [1, 11]: -22%; inhibition at 10 µM ([2]; 48 h): 5%; Quadrant (FIG. 5b) [3, 12]: Q4; Fibrin % cell toxicity (primary rat microglia [5]; [13]): 1%
Nc1ncnc2c1ncn2[C@@H]1O[C@H](COP(=O)(O)O)[C@@H](O)[C@H]1O [Adenosine Phosphate] | Q4 | 1 | – | – | – | 2 | – | Fibrin % inhibition ([1]; compounds at 10 μM, 10 µM): 6%; LPS % inhibition [2, 14]: 31%
CN1CCC(=C2c3ccccc3CCc3cccnc32)CC1 [Azatadine] | Q4 | 1 | -9 | 7 | – | 0 | – | –
CCCc1cc(C(N)=S)ccn1 [Protionamide, Ektebin] | – | – | – | – | – | – | – | Fibrin % inhibition [1, 11]: −18%; LPS % inhibition [2]: 12%; Quadrant (FIG. 5b) [3, 12]: Q4; LPS % cell toxicity (primary rat microglia [4]): 0%; Fibrin % cell toxicity (primary rat microglia [5]; [13]): 1%
CCCCCCOC(=O)NC(=N)c1ccc(NCc2nc3cc(C(=O)N(CCC(=O)OCC)c4ccccn4)ccc3n2C)cc1 [Dabigatran etexilate] | – | – | 3 | 9 | Q4 | 0 | 0 | –
C[C@]12CC[C@@H]3c4ccc(OS(=O)(=O)O)cc4CC[C@H]3[C@@H]1CCC2=O [Estropipate] | – | – | 10 | 10 | Q4 | 0 | 1 | –
N#CC(c1ccc(Cl)cc1)c1c(Cl)cc(-n2ncc(=O)[nH]c2=O)cc1Cl (stereo not shown) [Diclazuril] | – | – | 48 | 21 | Q4 | 0 | 1 | –
Nc1ncnc2c1ncn2[C@@H]1O[C@H](COP(=O)(O)O)[C@@H](O)[C@H]1O [Adenosine monophosphate] | Q4 | 1 | – | – | – | 0 | – | Fibrin % inhibition ([1]; compounds at 10 μM, 10 µM): −30%; LPS % inhibition [2, 14]: 4%
